{"source": "patent US20150010473A1", "about": "“DIAGNOSIS AND TREATMENT OF TUMORS” (MORPHOTEK, INC., priority 2006, published 2015)", "key": {"[1]": {"tested_on": "glioma cells", "conditions": "Ullrich and Sontheimer 1997; cited from earlier work"}, "[2]": {"tested_on": "glioma cells", "conditions": "Transwell assays; Soroceanu et al.; cited from earlier work"}, "[3]": {"tested_on": "primitive neuroectodermal tumors", "test": "Histochemical staining of biopsy sections with biotinylated chlorotoxin, summary", "format": "binding, human", "conditions": "of 53 patients tested", "from_the_text": "Most of the samples of human tissue, from both sexes, of different ages and races were obtained through the Cooperative Human Tissue Network, Tissue Procurement at UAB, UAB hospitals and the Human Brain Tissue Bank in London, Canada. Snap frozen tissue and fresh tissue embedded in a freezing gel were sliced at 8 microns and picked up onto positively charged glass slides. The sections were then fixed in 4% paraformaldehyde or milloniqs according to the staining protocol. Paraffin blocks were sectioned and prepared according to standard procedures.\nBiopsy sections were blocked for 1 hour in 10% normal goat serum in PBS and treated with a dilution of biotinylated chlorotoxin overnight at 4° C. […]\nFinally, a third adjacent section was stained with both hematoxylin, a cell nuclei specific stain, and eosin, a cytoplasmic stain. Therefore, for each tissue analyzed, three adjacent sections were stained. […] In the photomicrographs, adjacent sections are identified as follows: TM-601: biotinylated chlorotoxin detected by a brown reaction product of DAB with the biotin and further counterstained with methyl. green; Control: the control section stained with only methyl green; and, H&E: the hematoxylin and eosin stained section. […]"}, "[4]": {"tested_on": "membrane of glioma cells", "conditions": "Soroceanu et al. 1998; cited from earlier work"}}}
{"substance": "chlorotoxin", "values": [{"measurement": "effect on glioma cell proliferation", "setting": "[1]", "result": "enhances glioma cell proliferation"}, {"measurement": "effect on glioma cell migration", "setting": "[2]", "result": "inhibits the ability of glioma cells to migrate"}, {"measurement": "patients whose tumor material showed chlorotoxin specificity", "setting": "[3]", "result": 50}, {"measurement": "binding to glioma cells", "setting": "[4]", "result": "selectively binds to the membrane of glioma cells"}]}
